These results are taken from US8188064B2, “Vitamin D analogs for obesity prevention and treatment” (Wisconsin Alumni Research Foundation, priority 2003, dated 2012).

SMILES strings stand for the structures. Entries after “also recorded” stand apart in the source; their conditions may differ.

The target of data set [1] is T1, full-length recombinant rat vitamin D receptor (Rattus norvegicus, UniProt P13053).
T1 construct: Full-length recombinant rat receptor was expressed in E. coli; histidine tag (C); made in house; host or cells: E. coli BL21(DE3) Codon Plus RIL
T1 sequence (P13053 1-423): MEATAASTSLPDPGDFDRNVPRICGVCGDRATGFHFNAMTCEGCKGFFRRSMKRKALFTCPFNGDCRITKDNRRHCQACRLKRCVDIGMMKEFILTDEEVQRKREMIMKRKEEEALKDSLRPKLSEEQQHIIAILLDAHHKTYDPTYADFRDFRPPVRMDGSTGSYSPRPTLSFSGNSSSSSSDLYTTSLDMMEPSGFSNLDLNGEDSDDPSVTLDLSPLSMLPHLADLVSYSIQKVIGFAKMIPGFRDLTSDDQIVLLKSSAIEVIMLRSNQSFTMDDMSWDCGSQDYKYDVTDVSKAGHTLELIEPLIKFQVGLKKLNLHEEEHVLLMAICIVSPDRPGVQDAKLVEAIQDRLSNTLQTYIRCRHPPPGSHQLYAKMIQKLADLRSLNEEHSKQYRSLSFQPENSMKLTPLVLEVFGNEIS
Kind of data set: Vitamin D receptor binding (competition with 3H-1,25(OH)2D3). The conditions noted are these: for binding to the vitamin D receptor, compared to 1α,25(OH)2D3: result in words, competition for tritiated hormone binding. On the procedure: Full-length recombinant rat receptor was expressed in E. coli BL21(DE3) Codon Plus RIL cells and purified to homogeneity using two different column chromatography systems. The first system was a nickel affinity resin that utilizes the C-terminal histidine tag on this protein. The protein that was eluted from this resin was further purified using ion exchange chromatography (S-Sepharose Fast Flow). Aliquots of the purified protein were quick frozen in liquid nitrogen and stored at −80° C. until use. For use in binding assays, the protein was diluted in TEDK50 (50 mM Tris, 1.5 mM EDTA, pH 7.4, 5 mM DTT, 150 mM KCl) with 0.1% Chaps detergent. The receptor protein and ligand concentration was optimized such that no more than 20% of the added radiolabeled ligand was bound to the receptor.
Unlabeled ligands were dissolved in ethanol and the concentrations determined using UV spectrophotometry (1,25(OH)2D3: molar extinction coefficient=18,200 and λmax=265 nm; Analogs: molar extinction coefficient=42,000 and λmax=252 nm). Radiolabeled ligand (^3H-1,25(OH)2D3, ˜159 Ci/mmole) was added in ethanol at a final concentration of 1 nM.
Radiolabeled and unlabeled ligands were added to 100 mcl of the diluted protein at a final ethanol concentration of ≦10%, mixed and incubated overnight on ice to reach binding equilibrium. The following day, 100 mcl of hydroxylapatite slurry (50%) was added to each tube and mixed at 10-minute intervals for 30 minutes. The hydroxylapaptite was collected by centrifugation and then washed three times with Tris-EDTA buffer (50 mM Tris, 1.5 mM EDTA, pH 7.4) containing 0.5% Titron X-100. After the final wash, the pellets were transferred to scintillation vials containing 4 ml of Biosafe II scintillation cocktail, mixed and placed in a scintillation counter. Total binding was determined from the tubes containing only radiolabeled ligand.

The test system of data set [2] is Human promyelocytic leukemia (HL60) cells. Description: HL-60 differentiation (nitro blue tetrazolium reduction). As to conditions: for differentiation of HL-60 cells, compared to 1α,25(OH)2D3: result in words. Type of data set: cell-based. On the procedure:
The study drugs were dissolved in ethanol and the concentrations determined using UV spectrophotometry. Serial dilutions were prepared so that a range of drug concentrations could be tested without changing the final concentration of ethanol (≦0.2%) present in the cell cultures.
Human promyelocytic leukemia (HL60) cells were grown in RPMI-1640 medium containing 10% fetal bovine serum. The cells were incubated at 37° C. in the presence of 5% CO2.
HL60 cells were plated at 1.2×10^5 cells/ml. Eighteen hours after plating, cells in duplicate were treated with drug. Four days later, the cells were harvested and a nitro blue tetrazolium reduction assay was performed (Collins et al., 1979; J. Exp. Med. 149:969-974). The percentage of differentiated cells was determined by counting a total of 200 cells and recording the number that contained intracellular black-blue formazan deposits. Verification of differentiation to monocytic cells was determined by measuring phagocytic activity (data not shown).

Another data set concerns 3T3-L1 cells. Description: Inhibition of 3T3-L1 differentiation into mature adipocytes (Oil-Red-O staining). It is filed as cell-based, murine. The conditions noted are these: for inhibition of differentiation of 3T3-L1 cells into mature adipocytes (Oil-Red-O staining): result in words, MDI-treated cells, staining at day 10. On the procedure:
Various 19-nor vitamin D analogs were or are tested and found to inhibit the differentiation of preadipocytes into mature adipocytes, to reduce body fat, to inhibit an increase in PPARγ, C/EBPα, and/or SCD-1 gene transcription and to be useful in treating and preventing obesity both in vivo and in vitro. The undifferentiated preadipocyte 3T3-L1 subline, a derivative of the original mouse fibroblast cell line, is one of the most accepted models for investigating the adipogenesis process and was used for the analysis. Two days after reaching confluence, 3T3-L1 cells can be induced to differentiate into adipocytes (see Mackall, J. C. et al. J. Biol. Chem., 251(20), 6462-6464 (1976)) with the addition of a cAMP phosphodiesterase inhibitor, dexamethasone (a glucocortoid), and insulin. […] The induction of PPARγ and C/EBPα is required for adipocyte differentiation. […] SCD-1 is an enzyme found in adipocytes that converts saturated fatty acids (C16 and C18) to their monounsaturated forms (C16:1 and C18:1). The deposition of triglyceride can also be detected as early as 3 days, and by the 7th to 14th days post-confluence, greater than 80% of the cells in the monolayer stain positively with Oil-red-O.

The nature of data set [3]: Bone calcium mobilization (serum calcium on low calcium diet). It is filed as in vivo, rat. The conditions noted are these: result in words; vitamin D deficient rat model, compared to 1α,25(OH)2D3. How it is done:
(§1) Male, weanling Sprague-Dawley rats were placed on Diet 11 (0.47% Ca) diet+AEK for one week followed by Diet 11 (0.02% Ca)+AEK for 3 weeks. The rats were then switched to a diet containing 0.47% Ca for one week followed by two weeks on a diet containing 0.02% Ca. Dose administration began during the last week on 0.02% calcium diet. Four consecutive ip doses were given approximately 24 hours apart. Twenty-four hours after the last dose, blood was collected from the severed neck and the concentration of serum calcium determined as a measure of bone calcium mobilization. The first 10 cm of the intestine was also collected for intestinal calcium transport analysis using the everted gut sac method.

A short description of data set [4]: Intestinal calcium transport (everted gut sac). The conditions noted are these: result in words; vitamin D deficient rat model, compared to 1α,25(OH)2D3. It is filed as in vivo. How it is done:
as §1

The test system of data set [5] is 24-hydroxylase (24Ohase) gene promoter in ROS 17/2.8 (bone) cells. Kind of data set: In vitro transcription assay (luciferase reporter). Type of data set: cell-based. As to conditions: result in words. How it is done:
Transcription activity was measured in ROS 17/2.8 (bone) cells that were stably transfected with a 24-hydroxylase (24Ohase) gene promoter upstream of a luciferase reporter gene (Arbour et al., 1998). Cells were given a range of doses. Sixteen hours after dosing the cells were harvested and luciferase activities were measured using a luminometer. RLU=relative luciferase units.
(A reporter such as luciferase makes a cellular process visible.)

In the next data set the test system is SCD-1 mRNA. Description: Inhibition of SCD-1 mRNA induction in 3T3-L1 cells (RT-PCR). It is filed as cell-based, murine. As to conditions: for inhibition of SCD-1 mRNA induction: result in words, MDI-treated 3T3-L1 cells. The text has this: Chomczynski, P. et al., Anal. […] NO: 4)).

For the molecule `CC(CCCC(C)(C)O)C1CCC2C(=CC=C3CC(O)C(=CCCO)C(O)C3)CCCC21C` (stereo not shown) [1AGR], the “binding to the vitamin D receptor, compared to 1α,25(OH)2D3” value (from here on “binding … compared to 1α,25(OH)2D3”) is “very active” in data set [1] and “less than five times less potent” in data set [1] (listed as AGR). Also, in data set [2] (concentration 1×10^−7 M), the “cells induced to differentiate in the NBT assay” value is reported as “same degree of differentiation”. In data set [2], the “differentiation of HL-60 cells, compared to 1α,25(OH)2D3” value (shortened to “differentiation of HL-60 cells”) is given as “as potent as”. Further, in the data set on 3T3-L1 cells, the “inhibition of differentiation of 3T3-L1 cells into mature adipocytes (Oil-Red-O staining)” value is given as “nearly equipotent; also recorded: so much greater; also recorded: active”. The “bone calcium mobilization activity” value in data set [3] is reported as “significant ability to mobilize calcium from bone; also recorded: active”. In addition, the “intestinal calcium transport activity” value in data set [4] was “relatively high intestinal calcium transport activity; also recorded: active”. In addition, the “transcriptional activity in bone cells, compared to 1α,25(OH)2D3” value in data set [5] was “significant transcriptional activity”. Besides, the “inhibition of SCD-1 mRNA induction” value in the data set with SCD-1 mRNA is recorded as “nearly equipotent; also recorded: active”.

Regarding `C=C1[C@H](O)CC(=C/C=C2\CCC[C@]3(C)[C@@H](CC)CC[C@@H]23)C[C@H]1O` [2-Mpregna], the “binding … compared to 1α,25(OH)2D3” value in data set [1] is reported as “as or nearly effective as calcitriol”. Also, the “inhibition of differentiation of 3T3-L1 cells into mature adipocytes (Oil-Red-O staining)” value in the data set on 3T3-L1 cells was “nearly as potent as the native hormone”; in the data set with 3T3-L1 cells (listed as 2Mpregna), “still active”. Also, the “inhibition of differentiation of MDI-treated 3T3-L1 cells (oil-red-O staining)” value in the data set with 3T3-L1 cells (tested at 1×10^−8.5 M) is “active”. Moreover, the “bone calcium mobilization activity” value in data set [3] is given as “little, if any, activity”. In addition, in data set [4], the “intestinal calcium transport activity” value is given as “little, if any, activity”. Also, the “inhibition of SCD-1 mRNA induction” value with SCD-1 mRNA is “nearly as potent as the native hormone”; with SCD-1 mRNA (listed as 2Mpregna), “still active”. The “inhibition of SCD1 mRNA induction” value with SCD-1 mRNA (tested at 1×10^−8.5 M) is “active”.

Consider `CCCC[C@H](C)[C@H]1CC[C@H]2/C(=C/C=C3C[C@@H](O)C(C)[C@H](O)C3)CCC[C@]12C` (stereo partly drawn) [2α-methyl-19,26,27-trinor, 2α-methyl-19,26,27-trinor-(20S)-1α-hydroxyvitamin D3], for which the “binding … compared to 1α,25(OH)2D3” value in data set [1] was “bound equally well”. Also, the “differentiation of HL-60 cells” value in data set [2] is listed as “almost as potent”. Further, in data set [3], the “bone calcium mobilization activity” value is “very little bone calcium mobilization activity”. Also, in data set [5], the “transcriptional activity in bone cells, compared to 1α,25(OH)2D3” value was “similar”.

As to `C=C1[C@H](O)CC(=C/C=C2\CCC[C@@H]3[C@@H](C(C)C)CC[C@@H]23)C[C@H]1O` [18,19-dinor-2MP, 2-methylene-18,19-dinor-1α-hydroxyhomopregnacalciferol], the “binding … compared to 1α,25(OH)2D3” value in data set [1] is “bound equally well”. Further, in data set [2], the “differentiation of HL-60 cells” value was “almost as potent”. In data set [3], the “bone calcium mobilization activity” value was “very little bone calcium mobilization activity”. Moreover, the “intestinal calcium transport activity” value in data set [4] is “very little activity”. For the same molecule, in data set [5], the “transcriptional activity in bone cells, compared to 1α,25(OH)2D3” value is given as “about the same transcriptional activity”.

On to `C[C@H](/C=C/[C@H](C)C(C)(C)O)[C@H]1CC[C@H]2/C(=C/C=C3C[C@@H](O)C[C@H](O)C3)CCC[C@]12C` [19-nor-1α,25-dihydroxyvitamin D2, reference compound], for which the “binding … compared to 1α,25(OH)2D3” value in data set [1] is “as well as the native hormone”. Besides, the “inhibition of differentiation of 3T3-L1 cells into mature adipocytes (Oil-Red-O staining)” value was “equivalent in potency; also recorded: active” in the data set on 3T3-L1 cells and “more active” in the data set with 3T3-L1 cells (listed as 19-nor-1α,25-dihydroxyvitamin D2). For the same molecule, the “bone calcium mobilization activity” value in data set [3] was “very low bone calcium mobilizing activity”.

With `C=C1[C@H](O)C/C(=C/C=C2\CCC[C@]3(C)[C@@H]([C@@H](C)CC)CC[C@@H]23)C[C@@H]1O` [(1β,20S)2MbisP, (20S)-1β-hydroxy-2-methylene-19-nor-bishomo-pregnacalciferol, reference compound], the “binding … compared to 1α,25(OH)2D3” value in data set [1] was “binds poorly, if at all”. The “inhibition of differentiation of 3T3-L1 cells into mature adipocytes (Oil-Red-O staining)” value is on record as “unable to inhibit” in the data set on 3T3-L1 cells (listed as 1-(20S)2-MbisP) and “ineffective” in the data set on 3T3-L1 cells (listed as (1βOH, 20S)2M-BisP). Moreover, the “inhibition of SCD-1 mRNA induction” value in the data set on SCD-1 mRNA (listed as 1-(20S)2-MbisP) is “unable to inhibit”; in the data set with SCD-1 mRNA (listed as (1βOH, 20S)2M-BisP) it was “ineffective”.

In the case of `C=C1[C@H](O)CC(=C/C=C2\CCC[C@]3(C)[C@@H]([C@H](C)/C=C/[C@@H](C)C(C)(C)O)CC[C@@H]23)C[C@H]1O` [(24epi)D2], the “higher affinity binding to the vitamin D receptor than the native hormone” value in data set [1] (higher affinity than native hormone) is listed as “approximately 0.5 log units”. In the data set on 3T3-L1 cells, the “inhibition of differentiation of 3T3-L1 cells into mature adipocytes (Oil-Red-O staining)” value is listed as “improved; also recorded: active”. The “bone calcium mobilization activity” value in data set [3] was “less active”. For the same molecule, the “intestinal calcium transport activity” value in data set [4] is “less active”.

In the case of `C=C1[C@H](O)CC(=C/C=C2\CCC[C@]3(C)[C@@H]([C@@H](C)CCCC(C)(C)C)CC[C@@H]23)C[C@H]1O` [TMM], the “inhibition of differentiation of 3T3-L1 cells into mature adipocytes (Oil-Red-O staining)” value with 3T3-L1 cells is “inhibit; also recorded: effective”. The “bone calcium mobilization activity” value in data set [3] is “active”. Further, in data set [4], the “intestinal calcium transport activity” value was “active”.
